Reference: PMC5431200, “Identification of Streptococcus cristatus peptides that repress expression of virulence genes in Porphyromonas gingivalis” (Scientific Reports, 2017)

How the values were obtained:
[1] = system: fimA, mfa1, kgp, rgpA/B, rgpA; experiment: Virulence gene expression in P. gingivalis with ArcA peptides, stated for the gene set, qRT-PCR; format: cell-based, Porphyromonas gingivalis 33277; settings: peptide 16 µM (Table 1); at a lower efficiency than peptide4
Method: (§1) P. gingivalis were homogenized in Trizol Reagent (Invitrogen, Carlsbad, CA) and RNA was purified using an RNeasy mini spin column (Qiagen, Valencia, CA). RNA samples were digested on-column with RNase-free DNase, and total RNA was tested using an Agilent 2100 Bioanalyzer to ensure the quality of the samples. Amplification reactions consisted of a reverse transcription using a Bio-Rad iScript Reverse Transcription Supermix on a TC-3000 thermal cycler (Techne, Staffordshire, ST15 OSA, UK) and a real-time qRT-PCR analysis using a QuantiTect SYBR Green RT-PCR Kit (Qiagen) on an iCycler MyiQ^TM Real-Time PCR detection system (Bio-Rad Laboratories, Inc, Hercules, CA) according to the manufacturer’s instructions. P. gingivalis 16 S rRNA gene was used as a normalizing gene. […] The expression levels of the investigated genes for the test sample were determined relative to the untreated calibrator sample by using the comparative cycle threshold (ΔC T) method. ΔC T was calculated by subtracting the average C T value of the test sample from the average C T value of the calibrator sample, and the value used to calculate the ratio between the two by assuming 100% amplification efficiency.
(§2) Peptides were resuspended in nuclease/proteinase-free PBS, aliquoted, and stored at −20 °C. Inhibitory activity of peptides were determined as described[16] with slight modification. Peptides were mixed with 5 × 10^5 cells of P. gingivalis, spotted onto a TSB blood agar plate, and cultured for 60 h anaerobically. The expression levels of fimbrial and gingipain mRNA or proteins were measured using qRT-PCR or western blot analyses.

[2] = system: kgp; settings: peptide 16 µM; P. gingivalis 33277 grown TSB; real-time PCR mRNA level relative to absence of peptide = 1 unit; means and SD of three independent experiments
Method: (§3) The IC50 for each gene was established using a Microsoft Excel program with add-in for curve fitting.
as §1, §2

[3] = system: mfa1; settings: peptide 16 µM; P. gingivalis 33277 grown TSB; real-time PCR mRNA level relative to absence of peptide = 1 unit; means and SD of three independent experiments
Method: as §3, §1, §2

[4] = system: rgpA; settings: peptide 16 µM; P. gingivalis 33277 grown TSB; real-time PCR mRNA level relative to absence of peptide = 1 unit; means and SD of three independent experiments
Method: as §3, §1, §2

[5] = system: rgpA/B; experiment: rgpA/B expression (catalytic regions of rgpA/B) in P. gingivalis with ArcA peptides, real-time qRT-PCR; format: cell-based, Porphyromonas gingivalis 33277; settings: peptide 16 µM; P. gingivalis 33277 grown TSB; real-time PCR mRNA level relative to absence of peptide = 1 unit; means and SD of three independent experiments
Method: as §3, §1, §2

[6] = system: pgn0128; experiment: pgn0128 (immunoreactive 53 kDa antigen) expression in P. gingivalis with ArcA peptides, real-time qRT-PCR; format: cell-based, Porphyromonas gingivalis 33277; settings: peptide 16 µM; P. gingivalis 33277 grown TSB; real-time PCR mRNA level relative to absence of peptide = 1 unit; means and SD of three independent experiments
Method: as §1, §2

[7] = system: fimA; experiment: fimA expression in P. gingivalis with ArcA peptides, real-time qRT-PCR; format: cell-based, Porphyromonas gingivalis 33277; settings: peptide 16 µM; P. gingivalis 33277 grown TSB; real-time PCR mRNA level relative to absence of peptide = 1 unit; means and SD of three independent experiments
Method: as §3, §1, §2

Row | Substance | Inhibitory activity on virulence gene expression (in words) [1] | Relative expression level kgp [2] | Relative expression level mfa1 [3] | Relative expression level rgpA [4] | Relative expression level rgpA/B [5] | Relative expression level pgn0128 [6] | Relative expression level fimA [7]
1 | E389LVRGRGGPRCMSMPF [Peptide P5] | some inhibitory activity | 0.96 ± 0.12 | 0.83 ± 0.04 | 0.73 ± 0.06 | 0.72 ± 0.05 | 0.91 ± 0.06 | 0.97 ± 0.05
2 | V208YNREEDTRIEGGDEL [Peptide P3] | some inhibitory activity | 0.99 ± 0.12 | 0.82 ± 0.07 | 0.84 ± 0.06 | 0.98 ± 0.06 | 0.91 ± 0.07 | 0.87 ± 0.10
3 | I97RGRETKK [Peptide P1] | some inhibitory activity | 1.06 ± 0.12 | 0.85 ± 0.05 | 0.86 ± 0.07 | 0.89 ± 0.05 | 0.96 ± 0.06 | 0.88 ± 0.08
